Assay results taken from US20050191668A1, “Methods of using peroxisome proliferator-activated receptor alpha target genes” (priority 2004, published 2005).

Legend:
Assay type in all cases: cell-based, human
Pa21 gene [1] = experiment: Pa21 gene expression by real-time RT-PCR in primary adipocytes; details: about 18-20 hours, vehicle control = 100
Text: (§1) Human hepatocyte HuH7 cells, which are epithelial cells of liver, were obtained from Japan Health Science Research Resources Bank (Osaka, Japan). Human primary adipocytes, which are connective tissue cells specialized for the synthesis and storage of fat, were obtained from Zen-Bio, Inc (Research Triangle Park, NC). Human primary skeletal muscle cells (SKMC) were obtained from Cambrex Bio Science (Walkersville, Md.). PPARα agonists, Wy14643 (Agatha, et al, 2000, Archives of Biochemistry and Biophysics 380:353-359) and fenofibrates were obtained from Cayman Chemical (Ann Arbor, Mich.) and Sigma (St Louis, Mo.), respectively.
(§2) Human HuH7 cells were cultured in Dulbecco's Modified Eagle Medium with 10% Fetal Bovine Serum (Gibco, N.Y.). Cells were treated with charcoal-stripped, delipidated calf serum (5%) (Sigma, St Louis, Mo.) for about 4-18 hours. Then, cells were treated with different concentrations of PPARα agonist (Wy14643 or fenofibrates) for about 20-24 h. Human SKM cells were cultured in Skeletal Muscle Growth Medium (Cambrex Bio Science, Walkersville, Md.), and were treated with different concentrations of PPARα agonist (Wy14643 or fenofibrates) for about 18-20 hours. Human primary adipocytes were cultured in Preadipocyte Medium, (Cat #PM—1, Zen-Bio, Inc., Research Triangle Park, NC), and were treated with different concentrations of PPARα agonist (Wy14643 or fenofibrates) for about 18-20 hours.
(§3) Total RNA was purified from cultured cells following the protocol provided by the manufacturer (Trizon method, Invitrogen Inc. Ca). The polymerase chain reaction (PCR) primers and fluorescent probes (TagMan probes) for Pa9, Pa13, and Pa21 were designed from GenBank sequences of accession numbers W30988, AB000584, and NM_080725, respectively. The primers and probes were designed using the software PrimerDesign (Applied Biosystems, Foster City, Calif.). The PCR primers for Pa9 were SEQ ID NO: 7, (5-[…]) and SEQ ID NO: 8 (5-[…]). […] The PCR primers for Pa13 were SEQ ID NO: 10 (5-[…], T) and SEQ ID NO: 11 (5-[…] T). […] The PCR primers for Pa21 were SEQ ID NO: 13 (5-[…] C) and SEQ ID NO: 14 (5-[…]). […] All primers and probes were synthesized by Keystone Labs (Camarillo, Calif.).
(§4) Reverse transcription (RT) and PCR were conducted in one step using “One-Step RT-PCR Master Mix Reagent” kit (Applied Biosystems, Foster City, Calif.) in ABI PRISM 7700 Sequence Detection System (Applied Biosystems). Each reaction was performed in a total volume of 25 μl containing 40 ng of total RNA. The reaction condition was: 48° C. for 30 minutes, 60° C. for 30 minutes, 94° C. for 5 minutes, followed by 40 cycles of 94° C. for 20 seconds and 60° C. for 1 minute. The primers for 18S ribosomal RNA were developed and provided by Applied Biosystems. The measurement of human 18S ribosomal RNA was used as an internal control for normalization of measuring and loading errors. PCR data were collected by Ct value (the cycle number at which logarithmic PCR plots cross a calculated threshold line) according to the manufacturer's guidelines and the value was used to determine the Δ^Ct (Ct of the target gene minus the Ct of 18S ribosomal RNA controls). Relative mRNA level was calculated using the equation 2^−ΔΔCt as described previously (Heid et al., 1996, Genome Res. 6:986-994).

Pa13 gene [2] = experiment: Pa13 gene expression by real-time RT-PCR in primary adipocytes; details: about 18-20 hours, vehicle control = 100
Text: as §1, §2, §3, §4

Pa9 gene [3] = experiment: Pa9 gene expression by real-time RT-PCR in primary adipocytes; details: 50 uM, about 18-20 hours, vehicle control = 100
Text: as §1, §2
Total RNA was purified from cultured cells following the protocol provided by the manufacturer (Trizon method, Invitrogen Inc. Ca). The polymerase chain reaction (PCR) primers and fluorescent probes (TagMan probes) for Pa9, Pa13, and Pa21 were designed from GenBank sequences of accession numbers W30988, AB000584, and NM_080725, respectively. The primers and probes were designed using the software PrimerDesign (Applied Biosystems, Foster City, Calif.). The PCR primers for Pa9 were SEQ ID NO: 7, (5-[…]) and SEQ ID NO: 8 (5-[…]). […] The PCR primers for Pa13 were SEQ ID NO: 10 (5-[…], T) and SEQ ID NO: 11 (5-[…] T). […] The PCR primers for Pa21 were SEQ ID NO: 13 (5-[…] C) and SEQ ID NO: 14 (5-[…]). […]
Reverse transcription (RT) and PCR were conducted in one step using “One-Step RT-PCR Master Mix Reagent” kit (Applied Biosystems, Foster City, Calif.) in ABI PRISM 7700 Sequence Detection System (Applied Biosystems). […] PCR data were collected by Ct value (the cycle number at which logarithmic PCR plots cross a calculated threshold line) according to the manufacturer's guidelines and the value was used to determine the Δ^Ct (Ct of the target gene minus the Ct of 18S ribosomal RNA controls). Relative mRNA level was calculated using the equation 2^−ΔΔCt as described previously (Heid et al., 1996, Genome Res. 6:986-994).

Pa21 gene [4] = experiment: Pa21 gene expression by real-time RT-PCR in primary skeletal muscle cells; details: about 18-20 hours, vehicle control = 100
Text: as §1, §2, §3, §4

Pa9 gene [5] = experiment: Pa9 gene expression by real-time RT-PCR in primary skeletal muscle cells; details: about 18-20 hours, vehicle control = 100
Text: as §1, §2, §3, §4
The nucleotide sequence of the human FDRG gene (AX278133) is provided in SEQ ID NO: 1 and the sequence alignment between W30988 and FDRG gene is shown in FIG. 1. […] Quantitative real-time RT-PCR was performed to test whether gene expression of the human FDRG gene is regulated by PPARα.

Pa21 gene [6] = experiment: Pa21 gene expression by real-time RT-PCR in HuH7 hepatocytes
Text: as §1, §2, §3, §4

Pa13 gene [7] = experiment: Pa13 gene expression by real-time RT-PCR in HuH7 hepatocytes
Text: as §1, §2, §3, §4

Pa13 gene [8] = experiment: Pa13 gene expression by real-time RT-PCR in primary skeletal muscle cells; details: about 18-20 hours, vehicle control = 100
Text: as §1, §2, §3, §4

Pa9 gene [9] = experiment: Pa9 gene expression by real-time RT-PCR in HuH7 hepatocytes; details: HuH7 hepatocytes
Text: as §1, §2, §3, §4

[10] = 3 uM, about 20-24 h, vehicle control = 100
[11] = 10 uM, about 20-24 h, vehicle control = 100
[12] = 30 uM, about 20-24 h, vehicle control = 100
[13] = 100 uM, about 20-24 h, vehicle control = 100
[14] = 300 uM, about 20-24 h, vehicle control = 100
[15] = 1 μM, vehicle control = 100 (Table 4)

With `CC(C)OC(=O)C(C)(C)Oc1ccc(C(=O)c2ccc(Cl)cc2)cc1` [Fenofibrate] the “Pa21 (H4960) gene expression, Percentage ± SE (%)” value (“Pa21 … Percentage ± SE (%)” for short) (Pa21 gene [1]; 10 uM) was 63 ± 5.6%, the “Pa21 … Percentage ± SE (%)” value (Pa21 gene [1]; 50 uM) was 109 ± 4.5% and the “Pa21 … Percentage ± SE (%)” value (Pa21 gene [1]; 250 uM) was 121 ± 17.3%. For the same molecule, the “Pa13 (N26311) gene expression, Percentage ± SE (%)” value (“Pa13 … Percentage ± SE (%)” for short) (Pa13 gene [2]; 10 uM) was 70 ± 27.1%, the “Pa13 … Percentage ± SE (%)” value (Pa13 gene [2]; 50 uM) was 45 ± 13.3% and the “Pa13 … Percentage ± SE (%)” value (Pa13 gene [2]; 250 uM) was 206 ± 34.4%. For the same molecule, the “Pa9 (W38098) gene expression, Percentage ± SE (%)” value (“Pa9 … Percentage ± SE (%)” below) (Pa9 gene [3]) was 127 ± 1.5%, the “Pa21 … Percentage ± SE (%)” value (Pa21 gene [4]; 3 uM) was 110 ± 14.5% and the “Pa21 … Percentage ± SE (%)” value (Pa21 gene [4]; 10 uM) was 290 ± 1.4%. The “Pa21 … Percentage ± SE (%)” value (Pa21 gene [4]; 30 uM) was 280 ± 52.5%, the “Pa9 … Percentage ± SE (%)” value (Pa9 gene [5]; 3 uM) was 120 ± 34.2% and the “Pa9 … Percentage ± SE (%)” value (Pa9 gene [5]; 10 uM) was 230 ± 15.7%. The “Pa9 … Percentage ± SE (%)” value (Pa9 gene [5]; 30 uM) was 340 ± 7.4%, the “Pa9 … Percentage ± SE (%)” value (Pa9 gene [5]; 100 uM) was 350 ± 19.7% and the “Pa9 … Percentage ± SE (%)” value (Pa9 gene [5]; 300 uM) was 550 ± 14%. The “Pa21 … Percentage ± SE (%)” value (Pa21 gene [6]; [10]) was 63.6 ± 17.3%, the “Pa21 … Percentage ± SE (%)” value (Pa21 gene [6]; [11]) was 227.3 ± 54% and the “Pa21 … Percentage ± SE (%)” value (Pa21 gene [6]; [12]) was 209.1 ± 20.4%. The “Pa21 … Percentage ± SE (%)” value (Pa21 gene [6]; [13]) was 300 ± 20.6%, the “Pa21 … Percentage ± SE (%)” value (Pa21 gene [6]; [14]) was 336.4 ± 24.3% and the “Pa13 … Percentage ± SE (%)” value (Pa13 gene [7]; [10]) was 180 ± 43.9%. For the same molecule, the “Pa13 … Percentage ± SE (%)” value (Pa13 gene [7]; [11]) was 160 ± 55%, the “Pa13 … Percentage ± SE (%)” value (Pa13 gene [7]; [12]) was 250 ± 4.8% and the “Pa13 … Percentage ± SE (%)” value (Pa13 gene [7]; [13]) was 750 ± 10.8%. The “Pa13 … Percentage ± SE (%)” value (Pa13 gene [7]; [14]) was 710 ± 7.3%, the “Pa13 … Percentage ± SE (%)” value (Pa13 gene [8]; 3 uM) was 72.7 ± 30.9% and the “Pa13 … Percentage ± SE (%)” value (Pa13 gene [8]; 10 uM) was 63.6 ± 11.8%. For the same molecule, the “Pa13 … Percentage ± SE (%)” value (Pa13 gene [8]; 30 uM) was 181.8 ± 3%, the “Pa13 … Percentage ± SE (%)” value (Pa13 gene [8]; 100 uM) was 218.2 ± 2.9% and the “Pa13 … Percentage ± SE (%)” value (Pa13 gene [8]; 300 uM) was 309.1 ± 7.4%. The “Pa9 … Percentage ± SE (%)” value (Pa9 gene [9]; [10]) was 110 ± 12.7%, the “Pa9 … Percentage ± SE (%)” value (Pa9 gene [9]; [11]) was 90 ± 23% and the “Pa9 … Percentage ± SE (%)” value (Pa9 gene [9]; [12]) was 80 ± 2%. The “Pa9 … Percentage ± SE (%)” value (Pa9 gene [9]; [13]) was 140 ± 37.1% and the “Pa9 … Percentage ± SE (%)” value (Pa9 gene [9]; [14]) was 200 ± 11.5%.

`CN(CCOc1ccc(CC2SC(=O)NC2=O)cc1)c1ccccn1` (centres unmarked) [Rosiglitazone] was tested, and the “Pa21 … Percentage ± SE (%)” value (Pa21 gene [6]; [15]) was 97 ± 17.5%, the “Pa13 … Percentage ± SE (%)” value (Pa13 gene [7]; [15]) was 217 ± 20.2% and the “Pa9 … Percentage ± SE (%)” value (Pa9 gene [9]; [15]) was 147 ± 31.2%.
